{
  "source": "patent US8653264B2",
  "about": "“Crystal of erlotinib base and the preparation method thereof” (Zhejiang Huahai Pharmaceutical Co., Ltd., priority 2010, dated 2014)",
  "key": {"stability experiment": {"assay": "stability experiment", "assay_type": "physicochemical", "conditions": "crystal form IV of erlotinib base; conditions not given"}, "[1]": {"assay": "hygroscopicity experiment", "assay_type": "physicochemical", "conditions": "crystal form IV of erlotinib base; conditions not given"}},
  "data": [
    {"compound": "C#Cc1cccc(Nc2ncnc3cc(OCCOC)c(OCCOC)cc23)c1", "note": "[Form IV, N-(3-ethynylphenyl)-6,7-bis(2-methoxyethoxy)quinazolin-4-amine]", "values": [
      {"measurement": "change in the stability experiment", "setting": "stability experiment", "result": "did not significantly change"},
      {"measurement": "change in the hygroscopicity experiment", "setting": "[1]", "result": "did not significantly change"}
    ]}
  ]
}
